From ChEMBL document CHEMBL5653631, “A Potent and Selective ULK1 Inhibitor Suppresses Autophagy and Sensitizes Cancer Cells to Nutrient Stress” (iScience, 2018)
Each block holds one compound with its values, some of them ahead of it.

What was measured:
[1] = molecular target: Serine/threonine-protein kinase Nek7 (Homo sapiens) (UniProt Q8TDX7); assay: Inhibition of human recombinant NEK7 at 500 nM in presence of ATP by radiometric assay relative to control
[2] = molecular target: Mitogen-activated protein kinase kinase kinase 20 (Homo sapiens) (UniProt Q9NYL2); assay: Inhibition of human recombinant ZAK at 500 nM in presence of ATP by radiometric assay relative to control
[3] = molecular target: T1, Serine/threonine-protein kinase Nek1 (Homo sapiens) (UniProt Q96PY6); assay: Inhibition of human recombinant NEK1 at 500 nM related to control ULK1
T1 sequence (whole entry): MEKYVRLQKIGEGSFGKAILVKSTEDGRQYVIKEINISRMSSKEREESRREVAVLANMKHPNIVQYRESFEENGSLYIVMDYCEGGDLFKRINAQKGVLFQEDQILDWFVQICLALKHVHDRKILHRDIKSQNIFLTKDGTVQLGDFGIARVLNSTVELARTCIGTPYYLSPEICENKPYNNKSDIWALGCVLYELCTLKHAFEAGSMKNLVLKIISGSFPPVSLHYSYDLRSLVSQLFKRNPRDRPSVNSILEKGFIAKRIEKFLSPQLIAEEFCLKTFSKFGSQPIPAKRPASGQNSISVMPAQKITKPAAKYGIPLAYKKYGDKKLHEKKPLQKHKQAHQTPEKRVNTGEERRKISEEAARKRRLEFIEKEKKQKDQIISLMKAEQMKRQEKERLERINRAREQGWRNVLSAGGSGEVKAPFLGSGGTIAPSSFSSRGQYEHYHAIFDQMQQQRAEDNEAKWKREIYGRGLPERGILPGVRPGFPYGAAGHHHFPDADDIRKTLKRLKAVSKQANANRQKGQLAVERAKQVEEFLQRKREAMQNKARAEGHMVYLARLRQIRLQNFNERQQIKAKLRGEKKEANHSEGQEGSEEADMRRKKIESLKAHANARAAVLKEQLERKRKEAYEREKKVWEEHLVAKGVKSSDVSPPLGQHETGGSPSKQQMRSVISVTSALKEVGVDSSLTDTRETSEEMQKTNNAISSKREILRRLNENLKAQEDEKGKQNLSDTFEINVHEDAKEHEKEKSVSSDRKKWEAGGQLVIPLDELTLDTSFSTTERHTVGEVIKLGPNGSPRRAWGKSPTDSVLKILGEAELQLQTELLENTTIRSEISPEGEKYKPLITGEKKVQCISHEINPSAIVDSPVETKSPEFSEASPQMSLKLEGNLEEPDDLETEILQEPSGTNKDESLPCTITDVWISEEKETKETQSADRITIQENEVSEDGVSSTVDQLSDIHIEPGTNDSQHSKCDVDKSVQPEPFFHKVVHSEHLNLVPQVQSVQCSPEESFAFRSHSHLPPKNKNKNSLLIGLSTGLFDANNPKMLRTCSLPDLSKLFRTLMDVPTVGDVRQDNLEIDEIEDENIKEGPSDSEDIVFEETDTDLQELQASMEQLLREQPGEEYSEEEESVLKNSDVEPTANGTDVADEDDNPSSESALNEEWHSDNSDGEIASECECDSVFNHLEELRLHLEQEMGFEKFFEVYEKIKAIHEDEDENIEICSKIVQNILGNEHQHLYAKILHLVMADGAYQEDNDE

Homo sapiens = species on record: Homo sapiens; assay: Inhibition of human recombinant p70S6K at 500 nM related to control ULK1
[4] = molecular target: Serine/threonine-protein kinase Nek7 (Homo sapiens) (UniProt Q8TDX7); assay: Inhibition of human recombinant NEK7 at 40 nM related to control ULK1
[5] = molecular target: T2, Serine/threonine-protein kinase haspin (Homo sapiens) (UniProt Q8TF76); assay: Inhibition of human recombinant Haspin at 15 nM in presence of ATP by radiometric assay relative to control
T2 sequence (whole entry): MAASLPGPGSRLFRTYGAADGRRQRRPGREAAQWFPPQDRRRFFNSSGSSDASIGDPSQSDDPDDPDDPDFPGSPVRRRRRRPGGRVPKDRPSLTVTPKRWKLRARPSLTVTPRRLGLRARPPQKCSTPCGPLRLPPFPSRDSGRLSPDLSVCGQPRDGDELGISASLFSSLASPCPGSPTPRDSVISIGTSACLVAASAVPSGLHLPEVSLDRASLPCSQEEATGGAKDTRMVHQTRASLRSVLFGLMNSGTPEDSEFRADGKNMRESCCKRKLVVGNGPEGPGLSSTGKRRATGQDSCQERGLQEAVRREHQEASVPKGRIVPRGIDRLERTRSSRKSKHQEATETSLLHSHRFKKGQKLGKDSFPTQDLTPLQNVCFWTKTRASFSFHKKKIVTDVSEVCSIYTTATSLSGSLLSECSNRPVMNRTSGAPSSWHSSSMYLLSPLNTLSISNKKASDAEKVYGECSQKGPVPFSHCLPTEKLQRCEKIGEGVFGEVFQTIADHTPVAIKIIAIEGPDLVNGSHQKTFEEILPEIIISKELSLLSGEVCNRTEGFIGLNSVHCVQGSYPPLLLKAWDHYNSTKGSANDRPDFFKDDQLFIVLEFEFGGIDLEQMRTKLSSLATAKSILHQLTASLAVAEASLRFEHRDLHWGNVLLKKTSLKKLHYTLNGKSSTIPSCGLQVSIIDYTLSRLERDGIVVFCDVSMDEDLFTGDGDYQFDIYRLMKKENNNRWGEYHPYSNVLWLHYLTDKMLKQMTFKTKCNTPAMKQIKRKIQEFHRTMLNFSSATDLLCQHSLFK

[6] = molecular target: Tyrosine-protein kinase ABL2 (Homo sapiens) (UniProt P42684); assay: Inhibition of human recombinant ABL2 at 15 nM related to control ULK1
[7] = molecular target: T3, Dual specificity tyrosine-phosphorylation-regulated kinase 2 (Homo sapiens) (UniProt Q92630); assay: Inhibition of human recombinant DYRK2 at 15 nM related to control ULK1
T3 sequence (whole entry): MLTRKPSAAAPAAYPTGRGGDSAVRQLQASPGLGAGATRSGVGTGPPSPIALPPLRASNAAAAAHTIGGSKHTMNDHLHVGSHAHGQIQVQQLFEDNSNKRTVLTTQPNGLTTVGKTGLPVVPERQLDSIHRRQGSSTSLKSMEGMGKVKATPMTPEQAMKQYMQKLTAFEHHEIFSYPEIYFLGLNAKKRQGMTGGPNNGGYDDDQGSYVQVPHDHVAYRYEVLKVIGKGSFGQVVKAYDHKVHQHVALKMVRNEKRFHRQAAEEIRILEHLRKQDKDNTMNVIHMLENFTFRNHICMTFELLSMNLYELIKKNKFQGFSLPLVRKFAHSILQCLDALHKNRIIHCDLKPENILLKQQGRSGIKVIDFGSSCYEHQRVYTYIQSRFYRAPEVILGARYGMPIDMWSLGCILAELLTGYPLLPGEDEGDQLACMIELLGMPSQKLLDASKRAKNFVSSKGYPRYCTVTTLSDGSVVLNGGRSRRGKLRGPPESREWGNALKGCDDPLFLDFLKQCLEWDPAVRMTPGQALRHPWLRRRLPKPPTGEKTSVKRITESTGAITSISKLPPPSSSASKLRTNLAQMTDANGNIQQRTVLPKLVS

Sequence of Serine/threonine-protein kinase Nek7 (Homo sapiens) (Q8TDX7 whole entry, looked up): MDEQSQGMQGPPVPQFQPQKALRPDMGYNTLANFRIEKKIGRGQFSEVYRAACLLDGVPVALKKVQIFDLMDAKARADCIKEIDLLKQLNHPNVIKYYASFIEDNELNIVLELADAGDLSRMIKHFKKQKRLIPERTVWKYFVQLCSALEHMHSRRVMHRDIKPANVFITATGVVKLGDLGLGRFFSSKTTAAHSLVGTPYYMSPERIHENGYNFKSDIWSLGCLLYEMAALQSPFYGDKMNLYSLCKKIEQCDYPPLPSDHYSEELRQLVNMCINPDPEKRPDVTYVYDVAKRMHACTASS
Sequence of Tyrosine-protein kinase ABL2 (Homo sapiens) (P42684 whole entry): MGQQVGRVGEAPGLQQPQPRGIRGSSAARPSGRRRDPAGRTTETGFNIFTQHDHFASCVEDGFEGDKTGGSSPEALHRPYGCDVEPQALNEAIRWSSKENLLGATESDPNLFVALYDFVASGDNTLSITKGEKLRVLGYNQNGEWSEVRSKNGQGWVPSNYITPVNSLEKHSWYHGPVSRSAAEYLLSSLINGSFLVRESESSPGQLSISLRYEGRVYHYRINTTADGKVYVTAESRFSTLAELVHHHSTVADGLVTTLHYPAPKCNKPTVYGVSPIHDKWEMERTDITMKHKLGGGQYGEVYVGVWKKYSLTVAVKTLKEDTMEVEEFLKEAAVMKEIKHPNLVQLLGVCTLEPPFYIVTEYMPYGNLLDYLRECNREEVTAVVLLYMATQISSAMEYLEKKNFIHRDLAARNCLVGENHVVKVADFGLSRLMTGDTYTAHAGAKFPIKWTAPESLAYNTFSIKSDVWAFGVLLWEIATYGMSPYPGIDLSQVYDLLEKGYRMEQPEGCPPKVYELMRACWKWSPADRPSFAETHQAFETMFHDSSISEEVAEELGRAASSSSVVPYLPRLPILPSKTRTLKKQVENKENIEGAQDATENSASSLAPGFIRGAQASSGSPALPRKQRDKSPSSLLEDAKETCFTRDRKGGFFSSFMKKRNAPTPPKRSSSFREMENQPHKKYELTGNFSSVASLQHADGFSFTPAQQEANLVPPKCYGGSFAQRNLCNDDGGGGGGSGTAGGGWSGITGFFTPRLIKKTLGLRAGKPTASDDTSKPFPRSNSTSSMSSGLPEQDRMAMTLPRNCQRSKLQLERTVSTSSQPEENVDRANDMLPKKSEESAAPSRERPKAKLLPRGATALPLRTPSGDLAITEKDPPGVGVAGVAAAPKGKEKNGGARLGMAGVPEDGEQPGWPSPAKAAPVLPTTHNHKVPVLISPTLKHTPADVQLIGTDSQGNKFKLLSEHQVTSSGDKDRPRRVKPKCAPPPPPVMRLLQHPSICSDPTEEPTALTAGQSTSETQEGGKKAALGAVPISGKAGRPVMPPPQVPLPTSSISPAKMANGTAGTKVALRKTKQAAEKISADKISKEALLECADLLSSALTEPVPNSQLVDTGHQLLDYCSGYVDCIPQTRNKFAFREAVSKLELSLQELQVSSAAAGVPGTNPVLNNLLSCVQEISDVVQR
Sequence of Mitogen-activated protein kinase kinase kinase 20 (Homo sapiens) (Q9NYL2 2-800 limits assumed): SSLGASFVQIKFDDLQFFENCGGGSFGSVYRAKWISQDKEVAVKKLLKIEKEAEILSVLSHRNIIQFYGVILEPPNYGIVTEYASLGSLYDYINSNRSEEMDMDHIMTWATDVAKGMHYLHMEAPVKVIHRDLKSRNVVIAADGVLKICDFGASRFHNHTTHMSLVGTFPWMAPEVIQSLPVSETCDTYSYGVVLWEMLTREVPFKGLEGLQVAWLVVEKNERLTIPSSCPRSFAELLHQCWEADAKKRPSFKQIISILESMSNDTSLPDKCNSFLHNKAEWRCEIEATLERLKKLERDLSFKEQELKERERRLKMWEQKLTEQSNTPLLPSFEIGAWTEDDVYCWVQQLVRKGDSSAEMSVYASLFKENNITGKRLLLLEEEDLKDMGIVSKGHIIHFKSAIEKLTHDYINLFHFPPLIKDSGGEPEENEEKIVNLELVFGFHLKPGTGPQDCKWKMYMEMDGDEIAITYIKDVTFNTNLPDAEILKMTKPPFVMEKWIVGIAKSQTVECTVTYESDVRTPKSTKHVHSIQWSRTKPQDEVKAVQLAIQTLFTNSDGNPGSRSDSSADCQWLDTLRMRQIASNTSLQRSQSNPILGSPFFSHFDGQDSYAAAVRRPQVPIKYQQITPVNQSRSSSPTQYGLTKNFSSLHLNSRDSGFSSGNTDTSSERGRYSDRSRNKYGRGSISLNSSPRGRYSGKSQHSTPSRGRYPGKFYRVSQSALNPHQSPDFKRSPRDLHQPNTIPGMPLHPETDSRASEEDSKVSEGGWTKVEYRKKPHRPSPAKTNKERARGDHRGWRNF

inhibition [1]: 0%
inhibition [2]: 1%
fold change (FC) [3]: 0.11
fold change (FC) (Homo sapiens): 0
Structure (SMILES): CNC(=O)c1ccccc1Oc1nc(Nc2cc(OC)c(OC)c(OC)c2)ncc1Br

fold change (FC) [4]: 0
Structure (SMILES): O=C(N[C@@H](C1CC1)C(F)(F)F)c1cc(-c2cnn3cc(-c4ccc(F)cc4)cnc23)cs1

inhibition [5]: 0%
fold change (FC) [6]: 0.48
fold change (FC) [7]: 0.09
Structure (SMILES): CC(C)[C@H](NC(=O)c1cc(-c2cnn3cc(-c4ccc(OCCN5CCCCC5)cc4)cnc23)cs1)C(F)(F)F
